According to ChEMBL document CHEMBL1833885 (Bioorg Med Chem Lett, 2011):

Columns and labels:
Carbonic anhydrase 9 = Carbonic anhydrase 9 (Homo sapiens, UniProt Q16790)
Carbonic anhydrase 1 = Carbonic anhydrase 1 (Homo sapiens, UniProt P00915); test: Inhibition of human carbonic anhydrase 1-catalyzed CO2 hydration activity by stopped flow assay
Sequence of Carbonic anhydrase 1 (P00915 whole entry): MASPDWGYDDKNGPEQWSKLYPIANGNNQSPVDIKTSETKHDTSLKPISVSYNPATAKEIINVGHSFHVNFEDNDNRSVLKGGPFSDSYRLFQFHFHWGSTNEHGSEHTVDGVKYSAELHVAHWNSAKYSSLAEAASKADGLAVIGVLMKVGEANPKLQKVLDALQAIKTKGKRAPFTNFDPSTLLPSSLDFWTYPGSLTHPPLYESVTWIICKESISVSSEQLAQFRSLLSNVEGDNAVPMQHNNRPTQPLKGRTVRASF

Row | SMILES | Ki (Carbonic anhydrase 9) [µM] | Ki (Carbonic anhydrase 1) [µM]
1 | NS(=O)(=O)c1ccccc1C#Cc1ccccc1 | 6.37 | 
2 | Cc1ccc(C#Cc2ccccc2S(N)(=O)=O)cc1 | 8.6 | 674
3 | NS(=O)(=O)c1ccccc1C#Cc1cccc(F)c1 | 8.45 | 416

Molecules with a lower Ki (Carbonic anhydrase 9), results first:

Row | Ki (Carbonic anhydrase 9) [µM] | Ki (Carbonic anhydrase 1) [µM] | SMILES
4 | 0.0065 |  | COc1cccc(C#Cc2ccc(S(N)(=O)=O)cc2)c1
5 | 0.0058 |  | NS(=O)(=O)c1ccc(C#Cc2cccc(F)c2)cc1
